Results published in PubChem BioAssay (NCI).
“And” between values parts separate entries of the source, which are not always exact repeats. Identical values can stand only once.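 Step 1: Grow cells in 96-well plates. Step 2: Expose to compound for 48 hours at 5 concentrations. Step 3: Interpolate endpoints linearly; if unreached, use highest concentration. At the GI50, growth is halved. The concentration for full growth arrest is given as TGI.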

Key:
Experiment in all cases: inhibition of tumour cell growth, NCI panel, 48 h
786-0 renal = tested on: 786-0 renal
SNB-19 CNS = tested on: SNB-19 CNS
K-562 leukemia = tested on: K-562 leukemia
HS 578T breast = tested on: HS 578T breast
UACC-257 melanoma = tested on: UACC-257 melanoma
MDA-MB-435 = tested on: MDA-MB-435
OVCAR-4 ovarian = tested on: OVCAR-4 ovarian
SNB-75 CNS = tested on: SNB-75 CNS
HOP-92 NSCLC = tested on: HOP-92 NSCLC
SK-MEL-2 melanoma = tested on: SK-MEL-2 melanoma

| Compound | GI50 (786-0 renal) | TGI (786-0 renal) [µM] | GI50 (SNB-19 CNS) | TGI (SNB-19 CNS) [µM] | GI50 (K-562 leukemia) | TGI (K-562 leukemia) [µM] | GI50 (HS 578T breast) [µM] | TGI (HS 578T breast) [µM] | GI50 (UACC-257 melanoma) | TGI (UACC-257 melanoma) [µM] | GI50 (MDA-MB-435) | TGI (MDA-MB-435) [µM] | GI50 (OVCAR-4 ovarian) | TGI (OVCAR-4 ovarian) [µM] | GI50 (SNB-75 CNS) | TGI (SNB-75 CNS) [µM] | TGI (HOP-92 NSCLC) [µM] | TGI (SK-MEL-2 melanoma) [µM] | GI50 (HOP-92 NSCLC) | GI50 (SK-MEL-2 melanoma) |
| --- | --- | --- | --- | --- | --- | --- | --- | --- | --- | --- | --- | --- | --- | --- | --- | --- | --- | --- | --- | --- |
| CCC(CNc1cc(OC)cc2cccnc12)NC1CCCCC1 (stereo unspecified) | 24 µM | 69.4 | 89.7 µM | > 100 | 7.68 µM | 53.8 | 15.2 | 95.6 | 41.1 µM | > 100 | 32.6 µM | > 100 | 6.2 µM | > 100 | 21.3 µM | > 100 | – | – | – | – |
| O=C(OCc1ncc(-c2ccc(C(F)(F)F)cc2)c(NC2CCCCCC2)n1)c1c(F)c(F)c(F)c(F)c1F | 11.4 µM | 27.2 | 14.1 µM | 27.7 | 4.86 µM | 30.2 | 16.2 | 51.9 | 17.5 µM | 35 | 15.8 µM | 32.6 | 15.5 µM | 30.6 | 13 µM | 25.9 | – | – | – | – |
| O=C(Nc1cccc(O)c1)C(=O)C(C(=O)c1ccc(Cl)c(Cl)c1)C1OC(=O)c2ccccc21 (stereo unspecified) | – | 26.4 | – | 37.8 | – | 48.9 | – | – | – | 55.6 | – | – | – | 36.7 | – | 71.4 | 53.8 | 63.9 | – | – |
| CO[C@H](C(=O)[C@@H](O)[C@@H](C)O)[C@@H]1Cc2cc3cc(OC4CC(OC5CC(O)C(O)C(C)O5)C(O)C(C)O4)c(C)c(O)c3c(O)c2C(=O)[C@H]1OC1CC(OC2CC(OC3CC(C)(O)C(O)C(C)O3)C(O)C(C)O2)C(O)C(C)O1 (stereo partly specified) | 0.0255 µg/mL and 0.0152 µg/mL and 713 nM | – | 0.0238 µg/mL and 0.0179 µg/mL | – | 0.0253 µg/mL and 0.017 µg/mL | – | – | – | 0.0259 µg/mL and 0.0361 µg/mL | – | 0.0222 µg/mL and 0.0246 µg/mL and 1.25 µM | – | 0.0389 µg/mL and 0.0236 µg/mL | – | 0.0141 µg/mL and 0.0224 µg/mL | – | – | – | 0.0278 µg/mL and 0.016 µg/mL | 0.0152 µg/mL and 0.0126 µg/mL |
| CCc1cccc(CC)c1NC(=O)C1=C(C)NC(C)=C(C(=O)Nc2c(CC)cccc2CC)C1c1ccc([N+](=O)[O-])cc1 | – | 29.2 | – | > 100 | – | 93.5 | – | – | – | 53.1 | – | – | – | 33.8 | – | > 100 | 39.6 | 65.3 | – | – |
| Cc1c(C(=O)/C=C/c2ccc(N(C)C)cc2)c(=O)n(-c2ccccc2)n1C | – | > 100 | – | > 100 | – | – | – | – | – | > 100 | – | – | – | – | – | – | > 100 | > 100 | – | – |
| FC(F)(F)C1(Br)C(c2ccccc2)=C1c1ccccc1 | – | 31 | – | 59.2 | – | 28.2 | – | – | – | 43 | – | – | – | 54 | – | 88.6 | 32.2 | 30 | – | – |
| CC1=NN(C(=O)c2ccc([N+](=O)[O-])cc2)C(=O)C1N=Nc1ccccc1C(=O)O (stereo unspecified) | – | > 100 | – | > 100 | – | > 100 | – | – | – | > 100 | – | – | – | – | – | > 100 | 97.2 | > 100 | – | – |
| Cc1cc(N(CCC#N)S(C)(=O)=O)ccc1C=Nc1ccc(C(=O)NN2C(=O)/C(=C/c3ccc(N(CCC#N)CCC#N)cc3C)N=C2c2cc([N+](=O)[O-])ccc2Cl)cc1 | – | > 100 | – | > 100 | – | > 100 | – | – | – | > 100 | – | – | – | > 100 | – | > 100 | > 100 | > 100 | – | – |
| CN1C(=O)C(=O)c2cc3c(c4c2c1cc1ccccc14)OCO3 | – | > 100 | – | > 100 | – | > 100 | – | – | – | > 100 | – | – | – | > 100 | – | > 100 | > 100 | > 100 | – | – |
| COC1=CC(=O)C2C(C1=O)C(c1ccccc1)[C@H]2C (stereo partly specified) | – | > 100 | – | > 100 | – | > 100 | – | – | – | – | – | – | – | – | – | > 100 | 49.4 | > 100 | – | – |
| COC(C(=O)NCCCCNC(=O)C(OC)c1ccccc1)c1ccccc1 (stereo unspecified) | – | > 100 | – | > 100 | – | > 100 | – | – | – | > 100 | – | – | – | > 100 | – | > 100 | > 100 | > 100 | – | – |
| CC/C(CC(=O)CCC(=O)Nc1ccccc1[N+](=O)[O-])=N/NC(=O)C[n+]1ccccc1 | – | > 100 | – | > 100 | – | > 100 | – | – | – | > 100 | – | – | – | > 100 | – | > 100 | > 100 | > 100 | – | – |
| C=C[C@@]1(O)CCCC2=C(C(=O)OCC)CC[C@]21C | – | > 100 | – | > 100 | – | > 100 | – | – | – | > 100 | – | – | – | – | – | – | > 100 | > 100 | – | – |
| COc1cc(CNC2c3cc4c(cc3C(c3cc(OC)c(OC)c(OC)c3)[C@H]3C(=O)OCC23)OCO4)cc(OC)c1OC (stereo partly specified) | – | > 100 | – | > 100 | – | > 100 | – | – | – | > 100 | – | – | – | – | – | > 100 | > 100 | > 100 | – | – |
| CC(=O)[CH-]C(=O)c1ccccc1.CC(=O)[CH-]C(=O)c1ccccc1.CCOCC[O-].CCOCC[O-].[Ti+4] | 21.2 µM | 74.2 | 18.1 µM | 38.6 | 23 µM | 55.8 | – | – | 33.8 µM | > 100 | – | – | 31.9 µM | > 100 | 16.6 µM | 43.8 | – | 29.6 | – | 14.2 µM |
| O=C1C(Cl)C(c2ccccc2O)N1n1cnc2ccccc2c1=O (stereo unspecified) | – | > 100 | – | > 100 | – | > 100 | – | – | – | > 100 | – | – | – | > 100 | – | 49.6 | – | > 100 | – | – |
| CCc1cc(CCC(=O)Nc2c(C)cccc2C)[nH]n1 | – | > 100 | – | > 100 | – | > 100 | – | – | – | > 100 | – | – | – | > 100 | – | > 100 | > 100 | > 100 | – | – |
| N#C/C(=C1\SC(N=Nc2ccccc2)C(=O)N1c1ccccc1)c1nc2ccccc2[nH]1 (stereo unspecified) | – | > 100 | – | > 100 | – | > 100 | – | – | – | > 100 | – | – | – | > 100 | – | > 100 | > 100 | > 100 | – | – |
| CN(C)c1nc(=Nc2cccc(Cl)c2)ss1 | – | 25.6 | – | > 100 | – | 41.8 | – | – | – | 36 | – | – | – | 29.8 | – | 66.3 | 49.4 | 42.1 | – | – |
| CCOC(=O)C(C)(C)Oc1ccc(/C=C/C(=O)c2ccc(Cl)cc2)cc1 | – | 30.9 | – | 37.7 | – | 82.2 | – | – | – | 41.4 | – | – | – | 32.9 | – | 32.6 | – | 39 | – | – |
| CN(C)C=C1C(Cl)=C(C=O)CC(C=O)=C1Cl | – | 24.5 | – | 27.3 | – | 13.8 | – | – | – | 30.8 | – | – | – | 27.9 | – | 29.5 | 21.8 | 36.9 | – | – |
| Cc1cc(Cl)ccc1NC(=O)C(=O)C(C(=O)c1ccc2ccccc2c1)C1OC(=O)c2ccccc21 (stereo unspecified) | – | 22.1 | – | 18.3 | – | 33.8 | – | – | – | 47.8 | – | – | – | 25.5 | – | 49.2 | 34.5 | 27.3 | – | – |
